{"source": "paper PMC12711892", "about": "“A genome-wide CRISPR screen identifies GRA38 as a key regulator of lipid homeostasis during Toxoplasma gondii adaptation to lipid-rich conditions” (Nature Communications, 2025)", "target": "T1, GRA38-6xHis (Toxoplasma gondii, UniProt A0A7J6JXD8)", "T1 construct": "gene TGRH88_051660; signal peptide (first 23 residues) removed; C-terminal 6xHis in pET-29b(+), codon-optimised, E. coli BL21; tag kept", "T1 sequence (A0A7J6JXD8 entry or part of it)": "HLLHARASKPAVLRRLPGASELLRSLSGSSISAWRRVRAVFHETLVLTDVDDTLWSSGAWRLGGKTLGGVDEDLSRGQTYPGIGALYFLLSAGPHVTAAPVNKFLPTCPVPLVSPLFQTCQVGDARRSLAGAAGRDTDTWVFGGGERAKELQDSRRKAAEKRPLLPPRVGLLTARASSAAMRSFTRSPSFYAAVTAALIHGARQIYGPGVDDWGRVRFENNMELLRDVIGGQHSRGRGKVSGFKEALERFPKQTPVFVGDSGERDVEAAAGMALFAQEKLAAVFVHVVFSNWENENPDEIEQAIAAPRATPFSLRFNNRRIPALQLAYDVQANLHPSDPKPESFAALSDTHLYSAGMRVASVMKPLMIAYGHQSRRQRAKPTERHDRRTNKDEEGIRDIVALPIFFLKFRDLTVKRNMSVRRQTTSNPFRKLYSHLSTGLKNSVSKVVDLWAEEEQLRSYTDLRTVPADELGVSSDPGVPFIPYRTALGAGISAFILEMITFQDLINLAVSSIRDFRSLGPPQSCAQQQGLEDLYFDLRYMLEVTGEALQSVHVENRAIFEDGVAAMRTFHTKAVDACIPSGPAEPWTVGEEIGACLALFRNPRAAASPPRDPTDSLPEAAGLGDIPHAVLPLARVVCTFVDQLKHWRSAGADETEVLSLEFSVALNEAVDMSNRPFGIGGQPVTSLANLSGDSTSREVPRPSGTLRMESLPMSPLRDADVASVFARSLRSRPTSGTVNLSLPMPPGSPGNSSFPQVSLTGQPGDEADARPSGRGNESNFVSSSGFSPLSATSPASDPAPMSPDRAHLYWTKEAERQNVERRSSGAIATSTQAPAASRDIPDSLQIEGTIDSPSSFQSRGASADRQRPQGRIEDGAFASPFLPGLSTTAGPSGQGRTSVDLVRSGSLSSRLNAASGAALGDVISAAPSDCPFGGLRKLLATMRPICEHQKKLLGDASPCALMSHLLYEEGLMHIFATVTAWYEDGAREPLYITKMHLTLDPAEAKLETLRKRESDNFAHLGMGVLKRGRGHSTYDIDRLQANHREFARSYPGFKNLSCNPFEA", "experiment": "malachite green phosphate release assay (PAP activity)", "format": "biochemical", "details": "read-out: % inhibition at 1 mM"}
{"smiles": "O=CC(=O)c1ccccc1", "note": "[phenylglyoxal]", "values": [{"measurement": "inhibition at 1000 µM", "value": 45, "unit": "%"}]}
